Data: US20110152090A1, “HERBICIDAL COMPOSITIONS COMPRISING FLUFENACET” (Bayer CropScience AG, priority 2009, published 2011)

How the values were obtained:
Format in all cases: in vivo
[1] = system: HORVS (Hordeum vulgare, summer barley); experiment: Greenhouse trial: selective PO action (test method 5); settings: Hordeum vulgare (summer barley), in vivo, po
Method: (§1) In the standard design of the test, seeds of various broad-leaved weed and weed grass biotypes (origins) were sown in a 8-13 cm diameter pot filled with natural soil of a standard field soil (loamy silt; non-sterile) and covered with a covering soil layer of about 1 cm. The pots were then cultivated in a greenhouse (12-16 h of light, temperature day 20-22° C., night 15-18° C.) until the time of application. The pots were treated on a laboratory track sprayer with spray liquors comprising the compositions according to the invention, mixtures of the prior art or components used individually. Application of the active compounds or active compound combinations formulated as WG, WP, EC or otherwise was carried out at the appropriate growth stages of the plants. The application rate for the spray application was 100-600 l of water/ha. After the treatment, the plants were returned to the greenhouses.
(§2) About 3 weeks after the application, the soil action or/and foliar action was assessed visually according to a scale of 0-100% in comparison to an untreated comparative group: 0%=no noticeable effect compared to the untreated comparative group; 100%=full effect compared to the untreated comparative group.
(§3) (notes: the term “seeds” also includes vegetative propagation forms such as, for example, rhizome pieces; abbreviations used: h light=hours of illumination, g of AS/ha=gram of active substance per hectare, l/ha=liter per hectare, S=sensitive, R=resistant) • 1. Pre-emergence action against weeds: seeds of various broad-leaved weed and weed grass biotypes (origins) were sown in a 8-13 cm diameter pot filled with natural soil of a standard field soil (loamy silt; non-sterile) and covered with a covering soil layer of about 1 cm. The pots were then cultivated in a greenhouse (12-16 h of light, temperature day 20-22° C., night 15-18° C.) until the time of application. […]

[2] = system: STEME (Stellaria media), sensitive and resistant; experiment: Greenhouse trial: resistant biotypes, PE application (test method 9); settings: g of AS/ha: (A) 90, (B) 1200, (C) 90, iodosulfuron 10; for activity STEME resistant (visual scale 0-100%): resistant biotype; for activity STEME sensitive (visual scale 0-100%): sensitive biotype
Method: as §1, §2
(§4) (notes: the term “seeds” also includes vegetative propagation forms such as, for example, rhizome pieces; abbreviations used: h light=hours of illumination, g of AS/ha=gram of active substance per hectare, l/ha=liter per hectare, S=sensitive, R=resistant) • 1. Pre-emergence action against weeds: seeds of various broad-leaved weed and weed grass biotypes (origins) were sown in a 8-13 cm diameter pot filled with natural soil of a standard field soil (loamy silt; non-sterile) and covered with a covering soil layer of about 1 cm. The pots were then cultivated in a greenhouse (12-16 h of light, temperature day 20-22° C., night 15-18° C.) until the time of application. The pots were treated at the BBCH stage 00-10 of the seeds/plants on a laboratory track sprayer with spray liquors comprising the compositions according to the invention, mixtures or components used individually, as WG, WP, EC or other formulations. The application rate for the spray application was 100-600 l of water/ha. After the treatment, the plants were returned to the greenhouses and, when required, treated with fertilizer and watered. • 2. Post-emergence action against weeds: seeds of various broad-leaved weed and weed grass biotypes (origins) were sown in a 8-13 cm diameter pot filled with natural soil of a standard field soil (loamy silt; non-sterile) and covered with a covering soil layer of about 1 cm. The pots were then cultivated in a greenhouse (12-16 h of light, temperature day 20-22° C., night 15-18° C.) until the time of application. The pots were treated at various BBCH stages between 11-25 of the seeds/plants, i.e. generally between two to three weeks after the start of the cultivation, on a laboratory track sprayer with spray liquors comprising the compositions according to the invention, mixtures or components used individually, as WG, WP, EC or other formulations. The application rate for the spray application was 100-600 l of water/ha. After the treatment, the plants were returned to the greenhouses and, when required, treated with fertilizer and watered. • 3. Pre-emergence action against weeds with and without incorporation of active compound: seeds of various broad-leaved weed and weed grass biotypes (origins) were sown in a 8-13 cm diameter pot filled with natural soil of a standard field soil (loamy silt; non-sterile). […]

[3] = system: MATCH (Matricaria chamomilla), sensitive and resistant; experiment: as above; settings: g of AS/ha: (A) 90, (B) 1200, (C) 90, iodosulfuron 10; for activity MATCH resistant (visual scale 0-100%): resistant biotype; for activity MATCH sensitive (visual scale 0-100%): sensitive biotype
Method: as §1, §2, §4

[4] = system: LOLSS (Lolium species), sensitive and resistant; experiment: as above; settings: g of AS/ha: (A) 90, (B) 1200, (C) 90, iodosulfuron 10; for activity LOLSS resistant (visual scale 0-100%): resistant biotype; for activity LOLSS sensitive (visual scale 0-100%): sensitive biotype
Method: as §1, §2, §4

[5] = system: HORVS (Hordeum vulgare, summer barley); experiment: Greenhouse trial: different soil types (test method 8), crop; settings: Hordeum vulgare (summer barley), in vivo
Method: as §1, §2, §4

[6] = system: TRZAS (Triticum aestivum, summer wheat); experiment: Greenhouse trial: pre-sowing application vs PE application (test method 6), crop, pre-sowing part; settings: Triticum aestivum (summer wheat), in vivo
Method: as §1, §2, §3

[7] = system: LOLPE (Lolium perenne); experiment: Greenhouse trial: different soil types (test method 8); settings: g of AS/ha: (A) 120, (B) 1200, (C) 90
Method: as §1, §2, §4

[8] = system: MATCH (Matricaria chamomilla); experiment: as above; settings: g of AS/ha: (A) 120, (B) 1200, (C) 90; for Difference of the soil types, MATCH: IU/EC73 soil vs IU soil
Method: as §1, §2, §4

[9] = system: POAAN (Poa annua); experiment: Greenhouse trial: PE soil application vs incorporation into the soil (test methods 1, 3); settings: g of AS/ha: (A) 90, (B) 1200, (C) 90, (D) 300
Method: as §1, §2, §4

[10] = system: STEME (Stellaria media); experiment: as above; settings: g of AS/ha: (A) 90, (B) 1200, (C) 90, (D) 300
Method: as §1, §2, §4

[11] = system: POAAN (Poa annua); experiment: Greenhouse trial: PO application (test method 2); settings: g of AS/ha: (A) 120, (B) 1600, (C) 120
Method: as §1, §2, §4

[12] = system: STEME (Stellaria media); experiment: Greenhouse trial: PO application (test method 2); settings: g of AS/ha: (A) 120, (B) 1600, (C) 120
Method: as §1, §2, §4

[13] = system: APESV (Apera Spica-venti); experiment: Greenhouse trial: PO application (test method 2); settings: g of AS/ha: (A) 120, (B) 1600, (C) 120
Method: as §1, §2, §4

[14] = system: AVEFA (Avena fatua); experiment: Greenhouse trial: pre-sowing application vs PE application (test method 6)
Method: as §1, §2, §4

[15] = system: LOLPE (Lolium perenne); experiment: as above
Method: as §1, §2, §4

[16] = system: AVEFA (Avena fatua); experiment: Greenhouse trial: different irrigation systems (test method 7); settings: g of AS/ha: (A) 120, (B) 1200, (C) 90
Method: as §1, §2, §4

[17] = system: LOLPE (Lolium perenne); experiment: as above; settings: g of AS/ha: (A) 120, (B) 1200, (C) 90
Method: as §1, §2, §4

[18] = system: MATCH (Matricaria chamomilla); experiment: as above; settings: g of AS/ha: (A) 120, (B) 1200, (C) 90
Method: as §1, §2, §4

[19] = system: HORVS (Hordeum vulgare, summer barley); experiment: Greenhouse trial: pre-sowing application vs PE application (test method 6), crop, PE part; settings: Hordeum vulgare (summer barley), in vivo
Method: as §1, §2, §3

[20] = system: MATCH (Matricaria chamomilla); experiment: Greenhouse trial: different sowing depths, PE application (test method 10); settings: g of AS/ha: (A) 90, (B) 1200, (C) 90; for activity MATCH 5 mm (visual scale 0-100%): sowing depth 5 mm; for activity MATCH 20 mm (visual scale 0-100%): sowing depth 20 mm
Method: as §1, §2, §4

[21] = system: APESV (Apera Spica-venti); experiment: as above; settings: g of AS/ha: (A) 90, (B) 1200, (C) 90; for activity APESV 5 mm (visual scale 0-100%): sowing depth 5 mm; for activity APESV 20 mm (visual scale 0-100%): sowing depth 20 mm
Method: as §1, §2, §4

[22] = PE application, g of AS/ha: (A) 90, (B) 1200, (C) 90
[23] = application 7 days prior to sowing, g AS/ha: (A) 90, (B) 1200, (C) 90

SMILES | activity on crop HORVS (visual scale 0-100%) [1] [%] | activity STEME resistant (visual scale 0-100%) [2] [%] | activity STEME sensitive (visual scale 0-100%) [2] [%] | activity MATCH resistant (visual scale 0-100%) [3] [%] | activity MATCH sensitive (visual scale 0-100%) [3] [%] | activity LOLSS resistant (visual scale 0-100%) [4] [%] | activity LOLSS sensitive (visual scale 0-100%) [4] [%] | Difference Δ^D of the soil types, HORVS [5] | activity on crop HORVS IU soil (visual scale 0-100%) [5] [%] | activity on crop HORVS IU/EC73 soil (visual scale 0-100%) [5] [%] | activity on crop TRZAS (visual scale 0-100%) [6] [%] | activity LOLPE IU soil (visual scale 0-100%) [7] [%] | activity LOLPE IU/EC73 soil (visual scale 0-100%) [7] [%] | activity MATCH IU soil (visual scale 0-100%) [8] [%] | Difference of the soil types, MATCH [8] [%] | activity MATCH IU/EC73 soil (visual scale 0-100%) [8] [%] | activity POAAN (visual scale 0-100%) ([9]; PE application) [%] | activity STEME (visual scale 0-100%) ([10]; PE application) [%] | activity STEME (visual scale 0-100%) ([10]; incorporation into the soil) [%] | activity POAAN (visual scale 0-100%) [11] [%] | further results
CC(C)N(C(=O)COc1nnc(C(F)(F)F)s1)c1ccc(F)cc1 [(A) flufenacet, N-(4-fluorophenyl)-N-(1-methylethyl)-2-[[5-(trifluoromethyl)-1,3,4-thiadiazol-2-yl]oxy]acetamide] | 40 | 0 | 0 | 30 | 30 | 10 | 85 | Δ^D − 10% | 10 | 0 | 40 | 97 | 75 | 80 | −75 | 5 | 70 | 0 | 20 | 60 | activity POAAN (visual scale 0-100%) ([9]; incorporation into the soil): 100%; activity STEME (visual scale 0-100%) [12]: 30%; activity APESV (visual scale 0-100%) [13]: 60%; activity AVEFA (visual scale 0-100%) [14, 22]: 63%; activity AVEFA (visual scale 0-100%) [14, 23]: 70%; activity LOLPE (visual scale 0-100%) [15, 22]: 75%; activity LOLPE (visual scale 0-100%) [15, 23]: 80%; activity AVEFA (visual scale 0-100%) ([16]; irrigation from above): 85%; activity AVEFA (visual scale 0-100%) ([16]; irrigation from below): 50%; activity LOLPE (visual scale 0-100%) ([17]; irrigation from above): 80%; activity LOLPE (visual scale 0-100%) ([17]; irrigation from below): 78%; activity MATCH (visual scale 0-100%) ([18]; irrigation from above): 49%; activity MATCH (visual scale 0-100%) ([18]; irrigation from below): 35%; activity on crop HORVS (visual scale 0-100%) [19]: 80%; activity MATCH 5 mm (visual scale 0-100%) [20]: 30%; activity MATCH 20 mm (visual scale 0-100%) [20]: 30%; activity APESV 5 mm (visual scale 0-100%) [21]: 65%; activity APESV 20 mm (visual scale 0-100%) [21]: 70%
CCCN(CCC)C(=O)SCc1ccccc1 [(B) prosulfocarb, S-(phenylmethyl) dipropylcarbamothioate] | 30 | 40 | 70 | 25 | 0 | 65 | 85 | Δ^D + 3% | 0 | 3 | 20 | 33 | 0 | 10 | −10 | 0 | 35 | 30 | 65 | 30 | activity STEME (visual scale 0-100%) [12]: 30%; activity APESV (visual scale 0-100%) [13]: 20%; activity AVEFA (visual scale 0-100%) [14, 22]: 10%; activity AVEFA (visual scale 0-100%) [14, 23]: 10%; activity LOLPE (visual scale 0-100%) [15, 22]: 5%; activity LOLPE (visual scale 0-100%) [15, 23]: 0%; activity AVEFA (visual scale 0-100%) ([16]; irrigation from above): 5%; activity AVEFA (visual scale 0-100%) ([16]; irrigation from below): 10%; activity LOLPE (visual scale 0-100%) ([17]; irrigation from above): 10%; activity LOLPE (visual scale 0-100%) ([17]; irrigation from below): 5%; activity MATCH (visual scale 0-100%) ([18]; irrigation from above): 0%; activity MATCH (visual scale 0-100%) ([18]; irrigation from below): 0%; activity on crop HORVS (visual scale 0-100%) [19]: 15%; activity MATCH 5 mm (visual scale 0-100%) [20]: 0%; activity MATCH 20 mm (visual scale 0-100%) [20]: 0%; activity APESV 5 mm (visual scale 0-100%) [21]: 50%; activity APESV 20 mm (visual scale 0-100%) [21]: 20%
